Experimental data reported in PMC9051119 (RSC Advances, 2020).

Assays:
[1] = ref unpublished data, cited from earlier work
[2] = weakly basic APIs; cited from earlier work
[3] = Equilibrium solubility in model lipid-based formulations; details: for Miscibility in MC-SEDDS (MCF) / Miscibility in LC-SEDDS (LCF): result in words; for Miscibility in LC-SEDDS (LCF) / Solubility in LC-SEDDS: long chain SEDDS
[4] = Long term storage stability; details: >6 months at −20 °C

SMILES: C(=Cc1ccccc1)CN1CCN(C(c2ccccc2)c2ccccc2)CC1.CCCCC(CC)COC(=O)CC(C(=O)OCC(CC)CCCC)S(=O)(=O)O [Cinnarizine docusate]
- Miscibility in LC-SEDDS ([1]; long chain SEDDS): miscible
- Miscibility in MC-SEDDS ([1]; medium chain SEDDS): miscible

SMILES: C(=C\c1ccccc1)/CN1CCN(C(c2ccccc2)c2ccccc2)CC1 [Compound 1, cinnarizine]
- pKa [2]: > 8

SMILES: C(=C\c1ccccc1)/CN1CCN(C(c2ccccc2)c2ccccc2)CC1 [Compound 1b, cinnarizine]
- Miscibility in MC-SEDDS (MCF) ([3]; medium chain SEDDS): miscible

SMILES: C(=C\c1ccccc1)/CN1CCN(C(c2ccccc2)c2ccccc2)CC1 [Compound 1c, cinnarizine]
- Miscibility in MC-SEDDS (MCF) ([3]; medium chain SEDDS): miscible

SMILES: C(=C\c1ccccc1)/CN1CCN(C(c2ccccc2)c2ccccc2)CC1 [Compound 1d, cinnarizine]
- Miscibility in LC-SEDDS (LCF) [3]: miscible
- Miscibility in MC-SEDDS (MCF) ([3]; medium chain SEDDS): miscible

SMILES: C(=C\c1ccccc1)/CN1CCN(C(c2ccccc2)c2ccccc2)CC1 [Compound 1g, cinnarizine]
- Solubility in LC-SEDDS ([3]; value of the main text): 17 mg/g

SMILES: C(=C\c1ccccc1)/CN1CCN(C(c2ccccc2)c2ccccc2)CC1 [Compound 1h, cinnarizine]
- Crystallization after long term storage [4]: showed signs of crystallization

SMILES: C(=C\c1ccccc1)/CN1CCN(C(c2ccccc2)c2ccccc2)CC1 [Compound 1i, cinnarizine]
- Miscibility in MC-SEDDS (MCF) ([3]; medium chain SEDDS): miscible

SMILES: C(=C\c1ccccc1)/CN1CCN(C(c2ccccc2)c2ccccc2)CC1 [Compound 1j, cinnarizine]
- Miscibility in MC-SEDDS (MCF) ([3]; medium chain SEDDS): miscible

SMILES: C(=C\c1ccccc1)/CN1CCN(C(c2ccccc2)c2ccccc2)CC1 [Compound 1k, cinnarizine]
- Miscibility in LC-SEDDS (LCF) [3]: miscible
- Miscibility in MC-SEDDS (MCF) ([3]; medium chain SEDDS): miscible

SMILES: CCCCN(CCCC)CC(O)c1cc(Cl)cc2c1-c1ccc(Cl)cc1/C2=C/c1ccc(Cl)cc1 (stereo not shown) [Compound 2, lumefantrine]
- pKa [2]: > 8

SMILES: CCCCN(CCCC)CC(O)c1cc(Cl)cc2c1-c1ccc(Cl)cc1/C2=C/c1ccc(Cl)cc1 (stereo not shown) [Compound 2h, lumefantrine]
- LBF solubility enhancement compared to the free base ([3]; compared to the free base form): up to 18 fold
- Miscibility in LC-SEDDS (LCF) [3]: miscible
- Miscibility in MC-SEDDS (MCF) ([3]; medium chain SEDDS): miscible

SMILES: CCCCN(CCCC)CC(O)c1cc(Cl)cc2c1-c1ccc(Cl)cc1/C2=C/c1ccc(Cl)cc1 (stereo not shown) [Compound 2k, lumefantrine]
- Solubility in LC-SEDDS ([3]; value of the main text): 53 mg/g
- Solubility in MC-SEDDS ([3]; medium chain SEDDS, value of the main text): 66 mg/g
